Source: paper PMC3672105, “Identification and Enhancement of HLA-A2.1-Restricted CTL Epitopes in a New Human Cancer Antigen-POTE” (PLoS ONE, 2013)

Tests used:
[1] = system: AAD transgenic mice; test: Ex vivo interferon-γ ELISPOT assay after peptide immunization; format: in vivo, mouse; conditions: for IFN-γ response (ELISPOT) after stimulation with the immunizing peptide: AAD mice immunized s.c. with 50 nmol peptide, boosted at 2 weeks, pooled splenocytes of 3 mice, targets pulsed with 1.0 µM (1000 nM) peptide; for cross-reactive IFN-γ response (ELISPOT) to wild type peptide: AAD mice immunized with enhanced peptide, stimulation with wild type peptide
Description: (§1) Cytokines were purchased from Peprotech (Rocky Hill, NJ). […] For all experiments, groups of three mice were used.
The numbers of IFN-γ secreting cells were determined by an ELISPOT kit (Mouse IFN-gamma ELISpot SixPak; R&D, Minneapolis, […]) or by a set of anti-mouse IFN-γ coating (AN18) and detecting (R4–6A2) monoclonal antibodies (Mabtech) according to the manufacturer’s instructions. Two weeks after the last immunization, spleen cells were plated on antibody-coated plates at 200,000, 100,000 and 50.000 cells/well and stimulated with 200,000 peptide-pulsed naïve spleen cells/well with indicated concentration of peptides for 2 hours. After incubation overnight at 37°C, the plates were washed and detecting antibody was added. An ELISPOT blue color module (R&D) was used for color development. The spots were read by an ELISPOT reader (AID). All samples were analyzed in triplicate.

[2] = molecular target: T1, HLA-A2 molecule (Homo sapiens, UniProt P04439, D140Y/D185E/D98H/E176V/E277Q/G131W/G231S/I119V/I121R/I166T/I218V/L300P/L318F/N151K/N90K/P208A/P217A/Q86G/Q94H/R138H/R169H/T345S); test: T2 binding assay; conditions: for FI0.5 lower (higher affinity) than that of the POTE 252 peptide: ratio to wild type POTE 252; for FI0.5 (peptide concentration that increases HLA-A2.1 expression by 50% over no peptide control): BB7.2 staining, flow cytometry, triplicate; for HLA-A2 binder class in words: T2 binding assay
T1 construct: endogenous in cells; host or cells: T2 cell line (TAP1/TAP2-deficient)
Description: Peptide binding capacity to the HLA-A2 molecule was measured by using the T2 cell line according to a protocol described previously, [22]. T2 cells (3 × 10^5 cells/well) were incubated overnight in 96-well plates with culture medium (1∶1 mixture of RPMI 1640/Eagle-Hank’s amino acid containing 2.5% fetal bovine serum, 100 U/ml penicillin, and 100 µg/ml streptomycin) with 10 µg/ml β2-microglobulin (Sigma) and different titrated concentrations of peptides (starting from 100 µM with 2-fold serial dilution) as shown in the figures to determine the concentration giving a 50% increase in binding (see below). Cells were washed once with cold HBSS containing 0.1% BSA and incubated for 30 min at 4°C with anti-HLA-A2.1 monoclonal antibody (clone BB7.2) (1∶40 dilution from hybridoma supernatant). After washing, cells were stained with FITC-labeled goat anti-mouse immunoglobulin (BD, San Jose, CA), and the level of HLA expression was measured by flow cytometry. HLA-A2 expression was quantified as fluorescence index (FI) according to the following formula: FI = (geometric mean fluorescence intensity with peptide - geometric mean fluorescence intensity without peptide)/geometric mean fluorescence intensity without peptide. Background fluorescence without BB7.2 was subtracted for each individual value. To compare the different peptides, FI0.5, the peptide concentration that increases HLA-A2.1 expression by 50% over no peptide control background, was calculated from the titration curve for each peptide. It should be noted that the FI0.5 provides a relative measure of peptide affinity or potency among peptides compared side by side, but cannot be taken as a thermodynamic affinity.

[3] = system: C1R.AAD cells pulsed with peptides; test: 4-h 51Cr release CTL assay on peptide-pulsed targets after one week in vitro stimulation; format: cell-based, human; conditions: CTLs from immunized AAD mice after one week in vitro stimulation with cognate peptide (1.0 µM), targets pulsed with 1.0 µM peptide
Text: as §1

[4] = system: HHD-2 mice; test: HLA-A2/peptide tetramer staining and TCR Vβ repertoire of CD8+ T cells; format: in vivo, mouse; conditions: HHD-2 mice immunized with the peptide; for tetramer-positive CD8+ T cells: HLA-A2/peptide tetramer staining, Figure 2C
Text: as §1
Tetrameric MHC class I/peptide complexes obtained from the NIH Tetramer Facility were synthesized as described previously, [25]. Briefly, purified single-chain HLA-A2 molecules were synthesized by a prokaryotic expression system (pET; R&D Systems, Minneapolis, MN). The heavy chain was modified containing the Bir-A enzymatic biotinylation site. Single-chain heavy chain-β2-microglobulin and peptide were refolded by dilution into a redoxshuffling buffer system. The refolded product was biotinylated by Bir-A in the presence of […] (Avidity, Denver, CO). Streptavidin-Phycoerythrin conjugate (Jackson ImmunoResearch, West Grove, PA) was added in a 1∶4 molar ratio. Per-CP labeled anti-mouse CD8 antibody (BD Pharmingen) and TCR Vβ screening panel (BD Pharmingen) were used to detect the TCR repertoire of the CTLs.

[5] = wild type and substituted peptides, Figure 1B-D, T2 cells overnight with peptide and 10 µg/ml β2-microglobulin
[6] = predicted wild type peptides, Figure 1A, T2 cells overnight with peptide (from 100 µM, 2-fold dilutions) and 10 µg/ml β2-microglobulin

**Q.** Which “IFN-γ response (ELISPOT) after stimulation with the immunizing peptide” value (shortened to “IFN-γ response … with the immunizing peptide”) [1] does the source give for YLMAKALLL [POTE 252-1Y] here?
**A.** The value was “no significant IFN-γ responses were detected”.

**Q.** And the “FI0.5 lower (higher affinity) than that of the POTE 252 peptide” value [2]?
**A.** The value was roughly 2 fold.

**Q.** And the “FI0.5 (peptide concentration that increases HLA-A2.1 expression by 50% over no peptide control)” value [2, 5]?
**A.** The value was 0.9 µM.

**Q.** How did the “CTL lysis of peptide-pulsed target cells” value [3] turn out when KILEEIESV [POTE 553–561] was run?
**A.** Its value is “not any significant detectable target cell lysis”.

**Q.** What about the “IFN-γ response … with the immunizing peptide” value [1] of the same sequence?
**A.** Its value is “did not induce any significant IFN-γ responses”.

**Q.** What about the “HLA-A2 binder class in words” value ([2]; Figure 1A) of the same sequence?
**A.** Its value is “intermediate binders”.

**Q.** What about the “FI0.5 (peptide concentration that increases HLA-A2.1 expression by 50% over no peptide control)” value [2, 6] of the same sequence?
**A.** Its value is 5.6 µM.

**Q.** With KLMAKALLV [POTE 252-9V] as the sequence, how does the “CTL lysis of peptide-pulsed target cells” value [3] read?
**A.** Its value is “lysed target cells pulsed with the wild type POTE 252 as well as POTE 252-9V”.

**Q.** What about the “IFN-γ response … with the immunizing peptide” value [1] of the same sequence?
**A.** The value was “induced a significant number of IFN-γ spots”.

**Q.** And the “cross-reactive IFN-γ response (ELISPOT) to wild type peptide” value (shortened to “cross-reactive IFN-γ response (ELISPOT)”) [1]?
**A.** Its value is “cross-reactivity to both POTE 252 and POTE 252-9V”.

**Q.** And the “tetramer-positive CD8+ T cells” value [4]?
**A.** The value was 6.8%.

**Q.** What about the “CD8+tetramer+ T cells positive for Vβ10” value ([4]; TCR Vβ screening panel, Figure 2D) of the same sequence?
**A.** The value was “about 80%”.

**Q.** What about the “FI0.5 lower (higher affinity) than that of the POTE 252 peptide” value [2] of the same sequence?
**A.** The value was roughly 2 fold.

**Q.** And the “FI0.5 (peptide concentration that increases HLA-A2.1 expression by 50% over no peptide control)” value [2, 5]?
**A.** Its value is 0.8 µM.

**Q.** YLLEQNVDV [POTE 323-1Y] was tested. Which “FI0.5 (peptide concentration that increases HLA-A2.1 expression by 50% over no peptide control)” value [2, 5] did it give?
**A.** Its value is 0.25 µM.

**Q.** Which “CTL lysis of peptide-pulsed target cells” value [3] does the source give for KLMAKALLL [POTE 252–260] here?
**A.** The value was “lysed target cells pulsed with the wild type POTE 252 as well as POTE 252-9V”.

**Q.** What about the “IFN-γ response … with the immunizing peptide” value [1] of the same sequence?
**A.** The value was “induced a significant number of IFN-γ spots”.

**Q.** What about the “tetramer-positive CD8+ T cells” value [4] of the same sequence?
**A.** Its value is 9.3%.

**Q.** What about the “HLA-A2 binder class in words” value ([2]; Figure 1A) of the same sequence?
**A.** The value was “intermediate binders”.

**Q.** What about the “FI0.5 (peptide concentration that increases HLA-A2.1 expression by 50% over no peptide control)” value [2, 6] of the same sequence?
**A.** Its value is 1.6 µM.

**Q.** With YILEEIESV [POTE 553-1Y] as the sequence, how does the “CTL lysis of peptide-pulsed target cells” value [3] read?
**A.** Its value is “lysed target cells pulsed with not only POTE 553-1Y, but also POTE 553 and POTE 553-2L peptides”.

**Q.** And the “IFN-γ response … with the immunizing peptide” value [1]?
**A.** The value was “induced some level of IFN-γ responses only after stimulation with the same peptide”.

**Q.** What about the “cross-reactive IFN-γ response (ELISPOT)” value [1] of the same sequence?
**A.** Its value is “no cross-reactive response to wild type peptide was detected”.

**Q.** And the “FI0.5 (peptide concentration that increases HLA-A2.1 expression by 50% over no peptide control)” value [2, 5]?
**A.** The value was 0.024 µM.

**Q.** Which “FI0.5 (peptide concentration that increases HLA-A2.1 expression by 50% over no peptide control)” value [2, 5] does the source give for KLMAKAALL [POTE 252-7A] here?
**A.** The value was 4 µM.

**Q.** Which “FI0.5 (peptide concentration that increases HLA-A2.1 expression by 50% over no peptide control)” value [2, 5] does the source give for KLAAKALLL [POTE 252-3A] here?
**A.** The value was 16.9 µM.

**Q.** How did the “FI0.5 (peptide concentration that increases HLA-A2.1 expression by 50% over no peptide control)” value [2, 5] turn out when KILEEIASV [POTE-553-7A] was run?
**A.** Its value is 0.2 µM.

**Q.** For LLAEQNVDV [POTE 323-3A], which “FI0.5 (peptide concentration that increases HLA-A2.1 expression by 50% over no peptide control)” value [2, 5] is on record?
**A.** The value was 0.4 µM.

**Q.** Which results are given for KLLEEIESV [POTE 553-2L]?
**A.** CTL lysis of peptide-pulsed target cells [3]: did not lyse target cells pulsed with POTE 553-2L; IFN-γ response (ELISPOT) after stimulation with the immunizing peptide [1]: induced some level of IFN-γ responses only after stimulation with the same peptide; cross-reactive IFN-γ response (ELISPOT) to wild type peptide [1]: no cross-reactive response to wild type peptide was detected; FI0.5 (peptide concentration that increases HLA-A2.1 expression by 50% over no peptide control) [2, 5]: 0.1 µM

**Q.** LLLEQNVDV [POTE 323–331] was tested. Which “CTL lysis of peptide-pulsed target cells” value [3] did it give?
**A.** The value was “failed to lyse target cells pulsed with POTE 323”.

**Q.** What about the “IFN-γ response … with the immunizing peptide” value [1] of the same sequence?
**A.** The value was “only marginal IFN-γ responses”.

**Q.** And the “IFN-γ response over background level (ELISPOT)” value ([1]; AAD mice immunized with 50 nmol peptide, targets pulsed with 1000 nM peptide)?
**A.** Its value is “less than 2 fold”.

**Q.** And the “HLA-A2 binder class in words” value ([2]; Figure 1A)?
**A.** Its value is “strongest binding affinity”.

**Q.** And the “FI0.5 (peptide concentration that increases HLA-A2.1 expression by 50% over no peptide control)” value [2, 6]?
**A.** The value was 0.8 µM.

**Q.** For LLFEQNVDV [POTE 323-3F], which “CTL lysis of peptide-pulsed target cells” value [3] is on record?
**A.** The value was “lysed target cells pulsed with the POTE 323-3F, as well as wild type POTE 323”.

**Q.** And the “IFN-γ response … with the immunizing peptide” value [1]?
**A.** The value was “induced significant IFN-γ spots”.

**Q.** And the “cross-reactive IFN-γ response (ELISPOT)” value [1]?
**A.** Its value is “some degree of IFN-γ response was also detected”.

**Q.** What about the “FI0.5 better than the wild type peptide” value ([2]; ratio to wild type POTE 323) of the same sequence?
**A.** Its value is “approximately 3 fold”.

**Q.** What about the “FI0.5 (peptide concentration that increases HLA-A2.1 expression by 50% over no peptide control)” value [2, 5] of the same sequence?
**A.** The value was 0.09 µM.

**Q.** With LLLEQNADV [POTE 323-7A] as the sequence, how does the “FI0.5 (peptide concentration that increases HLA-A2.1 expression by 50% over no peptide control)” value [2, 5] read?
**A.** Its value is 2.78 µM.

**Q.** How did the “CTL lysis of peptide-pulsed target cells” value [3] turn out when GLTPLLLGV [POTE 272–280] was run?
**A.** The value was “lysed target cells pulsed with POTE 272”.

**Q.** What about the “IFN-γ response … with the immunizing peptide” value [1] of the same sequence?
**A.** Its value is “induced significant IFN-γ responses”.

**Q.** What about the “HLA-A2 binder class in words” value ([2]; Figure 1A) of the same sequence?
**A.** Its value is “strongest binding affinity”.

**Q.** And the “FI0.5 (peptide concentration that increases HLA-A2.1 expression by 50% over no peptide control)” value [2, 6]?
**A.** The value was 0.9 µM.
